How the values were obtained:
α1-adrenergic receptor = α1-adrenergic receptor binding ([3H] prazosin binding site); conditions: calf cerebral cortex
Method: Extent of binding to the α1 -adrenergic receptor was determined by the method of Greengrass and Bremner, Eur. J. Pharmacol., 55, 323 (1979) and is expressed in Table II as Ki, representing the affinity of each compound for the [^3 H] prazosin binding site in calf cerebral cortex.

α2-adrenergic receptor = assay type: binding, calf; conditions: for α1/α2 (ratio of Ki): Ki α1 / Ki α2, calf cerebral cortex; for Ki: [3H] clonidine binding site, calf cerebral cortex
[1] = tested on: sedation produced by clonidine; conditions: in vivo; cited from earlier work
[2] = tested on: clonidine-induced sedation; conditions: man; cited from earlier work
[3] = tested on: locomotor depressant effects of methyldopa; conditions: rats; cited from earlier work
norepinephrine reuptake = conditions: cited from earlier work
[4] = tested on: α1- or α2-adrenergic receptors; conditions: cited from earlier work

| SMILES | Ki (α1-adrenergic receptor) [nM] | α1/α2 (ratio of Ki) (α2-adrenergic receptor) | Ki (α2-adrenergic receptor) [nM] | further results |
| --- | --- | --- | --- | --- |
| FC(F)(F)c1cccnc1N1CCNCC1 [Compound 3] | 2850 | 29 | 97 |  |
| CN1CCN(c2ncccc2Br)CC1 [Compound 2] | 160 | 55 | 2.9 |  |
| c1ccc(N2CCNCC2)nc1 [Compound 4] | 2400 | 65 | 37 |  |
| Cl.Cl.Ic1cccnc1N1CCNCC1 [Compound 1, 1-(3-Iodo-2-pyridinyl)piperazine Dihydrochloride] | 1600 | 38 | 42 |  |
| COC(=O)[C@@H]1[C@H]2C[C@H]3c4[nH]c5ccccc5c4CCN3C[C@@H]2CC[C@@H]1O [yohimbine] |  |  |  | effect on sedation produced by clonidine [1]: antagonizes the sedation produced by clonidine; effect on clonidine-induced sedation [2]: reduce clonidine-induced sedation in man; effect on locomotor depressant effects of methyldopa [3]: antagonizes |
| CN1CCN(c2ncccc2Cl)CC1 [Compound 7] | 215 |  | 2.7 |  |
| O=[N+]([O-])c1cccnc1N1CCNCC1 [Compound 5, 1-(3-Nitro-2-pyridinyl)piperazine] | 3800 | 146 | 26 |  |
| CN1CCN2c3ccccc3Cc3ccccc3C2C1 (centres unmarked) [Mianserin] |  |  |  | in vivo norepinephrine reuptake inhibiting properties (norepinephrine reuptake): minimal; blockade of α2-adrenergic receptors [4]: blocks α2 -adrenergic receptors; selectivity for α1- or α2-adrenergic receptors ([4]; in vivo blockade suggested at about the same dose): fails to exhibit any important selectivity |
| CN1CCN(c2ncccc2F)CC1 [Compound 6] | 490 | 98 | 5 |  |

From US4442103A, “Treating sedation with 1-(3-substituted-2-pyridinyl) piperazines” (Merck & Co., Inc., priority 1982, dated 1984)
